Data taken from patent US7750166B2, “Ionic liquids containing a sulfonate anion” (University of South Alabama, priority 2002, dated 2010).
Where two headings read alike, the source gives them in different places.

Tests used:
[1] = Procedure: Supercritical applications using CO2 typically operate at temperatures between above 32° C. and pressures above about 1,070 psi.
[2] = Solubility in water; type: physicochemical
Remark: listed apart in the source
[3] = Solubility in common organic solvents; type: physicochemical; details: such as dichloromethane and acetone
Procedure: This example details the synthesis of a tetrabutyl ammonium molten salt of the amide having chemical formula III above. One-tenth of a mole (50 g) of the sodium salt of the amide-sulfonate salt having chemical structure III above (with R2 and R4 being CH2CH3, R1 and R5 each being a 2-ethylhexyl group, and R3 being CH2) was dissolved in 250 mL of dichloromethane, and one-tenth mole (32 g) of tetrabutyl ammonium bromide was added as a solid. The mixture was stirred for a day, after which time the solution was filtered first through filter paper and then through a short plug of silica gel. The eluted dichloromethane solution was quickly washed with water, dried over magnesium sulfate, and the solvent removed in vacuo, leaving the desired product in high yield (64 g, 89%). The product salt is soluble in both water and in several common organic solvents, such as dichloromethane and acetone. The melting range of the resulting salt was less than about 30° C. because the product was a viscous oil at room temperature. The product salt included Bis (N-ethyl-N-(2-ethylhexyl)sulfosuccinate diamide) anion paired with tetrabutyl ammonium cation.

## CCCCC(CC)COC(=O)CC(C(=O)OCC(CC)CCCC)S(=O)(=O)[O-].CCCC[N+](CCCC)(CCCC)CCCC (stereo not drawn) [Example 1, tetrabutylammonium docusate]
[1]
  Solubility in supercritical carbon dioxide (CO2): soluble

## CCCCC(CC)COC(=O)CC(C(=O)OCC(CC)CCCC)S(=O)(=O)[O-].CCCC[N+](C)(CCCC)CCCC (stereo not drawn) [Example 2, Me(n-Bu)3N Docusate]
[2]
  Solubility in water: Hydrophobic

## CCCCC(CC)COC(=O)CC(C(=O)OCC(CC)CCCC)S(=O)(=O)[O-].CCCCC(CC)COC(=O)CC(C(=O)OCC(CC)CCCC)S(=O)(=O)[O-].C[N+](C)(C)CCCCCC[N+](C)(C)C (stereo not drawn) [Example 3, Me3N(CH2)6NMe3 Docusate]
[2]
  Solubility in water: Hydrophobic

## CCCCC(CC)COC(=O)CC(C(=O)OCC(CC)CCCC)S(=O)(=O)[O-].CC[N+](CC)(CC)CC (stereo not drawn) [Example 5, Et4N Docusate]
[2]
  Solubility in water: miscible

## CCCCC(CC)COC(=O)CC(C(=O)OCC(CC)CCCC)S(=O)(=O)[O-].CCCCCCn1cc[n+](C)c1 (stereo not drawn) [Example 6, 1-n-hexyl-3-methyl imidazolium docusate]
Addition of additional water to the gel, followed by agitation
  Phase behaviour on contact with water: formation of two phases
Contacted with 40 volume percent or less of water, even after agitation
  Phase behaviour on contact with water: formation of two phases
Contacted with 50 volume percent water, agitation
  Phase behaviour on contact with water: stiff, visibly monophasic gel

## CCCCC(CC)CN(CC)C(=O)CC(C(=O)N(CC)CC(CC)CCCC)S(=O)(=O)[O-].CCCC[N+](CCCC)(CCCC)CCCC (stereo not drawn) [Example 11]
[3]
  Solubility in several common organic solvents: soluble
[2]
  Solubility in water: soluble
